Reference: ChEMBL document CHEMBL1201862, “PubChem BioAssay data set” (2004)
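Results reflect a 48-hour exposure of cells in 96-well plates to compound at five concentrations. Here, GI50 denotes the concentration required for 50% inhibition of growth.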 Activity calls are given as the source filed them. No stated cut-off is given here; in the data, active = GI50 up to about 1.1 µM and inactive = higher.

Columns and labels:
Assay in all cases: inhibition of tumour cell growth, NCI panel, 48 h
SNB-75 = system: SNB-75
DMS-273 = system: DMS-273
NCI-H460 = system: NCI-H460
SK-MEL-28 = system: SK-MEL-28
HL-60 = system: HL-60
COLO 205 = system: COLO 205
TK-10 = system: TK-10
HOP-62 = system: HOP-62
LOX IMVI = system: LOX IMVI
HCT-116 = system: HCT-116
HCT-15 = system: HCT-15
NCI-H23 = system: NCI-H23
SK-OV-3 = system: SK-OV-3
ACHN = system: ACHN
K562 = system: K562
UACC-62 = system: UACC-62
SF-539 = system: SF-539
EKVX = system: EKVX
NCI/ADR-RES = system: NCI/ADR-RES
OVCAR-8 = system: OVCAR-8

Compound | GI50 (SNB-75) | GI50 (DMS-273) | GI50 (NCI-H460) | GI50 (SK-MEL-28) | GI50 (HL-60) | GI50 (COLO 205) | GI50 (TK-10) | GI50 (HOP-62) | GI50 (LOX IMVI) | GI50 (HCT-116) | GI50 (HCT-15) | GI50 (NCI-H23) | GI50 (SK-OV-3) | GI50 (ACHN) | GI50 (K562) | GI50 (UACC-62) | GI50 (SF-539) | GI50 (EKVX) | GI50 (NCI/ADR-RES) | GI50 (OVCAR-8)
O=C(NN1C(=O)CS(=O)(=O)C1c1ccc(C(F)(F)F)cc1)c1ccncc1 (stereo unspecified) | > 100 µM (inactive) | > 100 µM (inactive) | > 100 µM (inactive) | > 100 µM (inactive) | > 100 µM (inactive) | > 100 µM (inactive) | > 100 µM (inactive) | > 100 µM (inactive) | > 100 µM (inactive) | > 100 µM (inactive) | > 100 µM | > 100 µM (inactive) | > 100 µM (inactive) | > 100 µM (inactive) | – | – | – | – | – | –
COc1ccc(-c2c(C#N)c(NC(=S)NC(=O)c3ccccc3)nc3c2CCCC3)cc1OC | 22.3 µM (inactive) | – | 35 µM (inactive) | 61.4 µM (inactive) | 34.1 µM (inactive) | > 100 µM (inactive) | 45.4 µM (inactive) | 44.9 µM (inactive) | 49.7 µM (inactive) | > 100 µM (inactive) | > 100 µM | 67.9 µM (inactive) | > 100 µM (inactive) | 72.3 µM (inactive) | 29.6 µM (inactive) | 44.5 µM (inactive) | 30.2 µM (inactive) | 24.5 µM (inactive) | 56.4 µM (inactive) | 48.5 µM (inactive)
CC1(C)CCc2ccc(OCCC(=O)O)cc2O1 | 83.4 µM (inactive) | > 100 µM (inactive) | > 100 µM (inactive) | – | > 100 µM (inactive) | > 100 µM (inactive) | – | > 100 µM (inactive) | > 100 µM (inactive) | > 100 µM (inactive) | > 100 µM | > 100 µM (inactive) | > 100 µM (inactive) | > 100 µM (inactive) | > 100 µM (inactive) | > 100 µM (inactive) | > 100 µM (inactive) | > 100 µM (inactive) | – | > 100 µM (inactive)
CCOC(=O)/C(O)=C1\C(=O)N(C)C(=O)C1c1ccc(OC)c(OC)c1 (stereo unspecified) | > 100 µM (inactive) | > 100 µM (inactive) | > 100 µM (inactive) | > 100 µM (inactive) | > 100 µM (inactive) | > 100 µM (inactive) | – | > 100 µM (inactive) | > 100 µM (inactive) | > 100 µM (inactive) | > 100 µM | > 100 µM (inactive) | > 100 µM (inactive) | – | > 100 µM (inactive) | > 100 µM (inactive) | > 100 µM (inactive) | > 100 µM (inactive) | > 100 µM (inactive) | > 100 µM (inactive)
CC1(C)N/C(=C\C=O)C(C)(C)N1O | – | – | > 100 µM (inactive) | > 100 µM (inactive) | > 100 µM (inactive) | > 100 µM (inactive) | > 100 µM (inactive) | > 100 µM (inactive) | > 100 µM (inactive) | > 100 µM (inactive) | > 100 µM | > 100 µM (inactive) | > 100 µM (inactive) | > 100 µM (inactive) | > 100 µM (inactive) | > 100 µM (inactive) | > 100 µM (inactive) | > 100 µM (inactive) | > 100 µM (inactive) | > 100 µM (inactive)
